Columns and labels:
[1] = system: BxPC-3 tumors; assay: In vivo tumor growth assay (xenograft); set-up: species or system nu/nu mice; conditions: 12.5 mg/kg intraperitoneally
Experimental: FIG. 4. Inhibition of tumor growth in vivo by fendiline. Nu/nu mice implanted with BxPC-3 or MIAPaCa-2 tumors were treated with vehicle (DMSO) or fendiline (12.5 mg/kg) intraperitoneally and tumor sizes were measured with an external caliper every 3-4 days. Time and fendiline treatment affected MiaPaCa2 xenograft growth (2-way ANOVA, p=0.027).
Early passage BxPC-3 or MIAPaCa-2 cells were harvested, and 2-3X106 cells were implanted into the right flanks of nu/nu mice. The animals were randomized into control and treated groups (10 mice per group). Tumor volume (V) was measured with an external caliper every 3-4 days and it was calculated as V=0.52 (length×width2). Drug treatment was initiated 4 days after tumor implantation. Drugs were injected daily intraperitoneally (at doses indicated) for 5 days, with 2 days of no treatment in between. All treatments were continued until any of the subcutaneous tumors reached 1500 mm3 in volume or for 6 weeks (whichever was first), when all the animals were sacrificed and the tumors removed.

[2] = system: MAPK pathway inhibitors such as trametinib; assay: Combination with MAPK pathway inhibitors; conditions: preliminary findings

Compound	BxPC-3 xenograft growth [1]	synergy with MAPK pathway inhibitors [2]
CC(NCCC(c1ccccc1)c1ccccc1)c1ccccc1 (centres unmarked) [Fendiline]	No significant effects	–
COc1ccc([C@@H](C)N(CC=C(c2ccccc2)c2ccccc2)CCN2CCCC2)cc1 [NY0331, (R)-N-(1-(4-methoxyphenyl)ethyl)-3,3-diphenyl-N-(2-(pyrrolidin-1-yl)ethyl)prop-2-en-1-amine]	–	synergizes

Reference: US12043602B2, “Fendiline derivatives” (The Board of Regents of the University of Texas System, priority 2019, dated 2024)
